# Measured values published in ChEMBL document CHEMBL4622952, “Synthesis and biological evaluation of Schizandrin derivatives as tubulin polymerization inhibitors” (Bioorg Med Chem Lett, 2020).
# Activity calls are given as the source filed them. No cut-off for these calls is given here.
# Tests used:
# [1] = biological target: T1, Tubulin (Homo sapiens) (UniProt P68371+Q9H4B7+P0DPH7+P68366+Q13509+Q71U36+P04350+Q3ZCM7+P07437+P68363+Q9BQE3+Q6PEY2+Q13885+Q9BVA1+Q9BUF5); assay: Inhibition of tubulin […] in human DU145 cells assessed as increase in soluble fraction of tubulin at […] measured after 24 hrs by Western blot analysis; type: cell-based; details: DU-145
# [2] = test system: A549; assay: Antiproliferative activity against human A549 cells assessed as reduction in cell viability measured after 48 hrs by MTT assay; type: functional, cell-based; details: for IC50: A549, 48 h
# [3] = (§1) Antiproliferative activity against human RKOP3 cells assessed as reduction in cell viability measured after 48 hrs by MTT assay; type: functional, cell-based
# [4] = species: Homo sapiens; assay: as §1; type: functional, cell-based
# [5] = test system: DU-145; assay: Antiproliferative activity against human DU145 cells assessed as reduction in cell viability measured after 48 hrs by MTT assay; type: functional, cell-based; details: for IC50: DU-145, 48 h
# [6] = test system: HeLa; assay: Antiproliferative activity against human HeLa cells assessed as reduction in cell viability measured after 48 hrs by MTT assay; type: functional, cell-based
# [7] = test system: HEK293; assay: Cytotoxicity against human HEK293 cells assessed as reduction in cell viability measured after 48 hrs by MTT assay; type: cell-based
# [8] = test system: DU-145; assay: Induction of apoptosis in human DU145 cells assessed as live cells at 2.54 uM measured after 24 hrs by annexinV-FITC/propidium iodide staining based flow cytometry analysis (reference value: 97.09 %); type: functional
# [9] = test system: DU-145; assay: Induction of apoptosis in human DU145 cells assessed as early apoptotic cells at 2.54 uM measured after 24 hrs by annexinV-FITC/propidium iodide staining based flow cytometry analysis (reference value: 2.34 %); type: functional
# [10] = test system: DU-145; assay: Induction of apoptosis in human DU145 cells assessed as late apoptotic cells at 2.54 uM measured after 24 hrs by annexinV-FITC/propidium iodide staining based flow cytometry analysis (reference value: 0.05 %); type: functional
# [11] = test system: DU-145; assay: Induction of apoptosis in human DU145 cells assessed as necrotic cells at 2.54 uM measured after 24 hrs by annexinV-FITC/propidium iodide staining based flow cytometry analysis (reference value: 0.52 %); type: functional
# [12] = Induction of apoptosis in human RKOP3 cells assessed as live cells at 2 uM measured after 24 hrs by annexinV-FITC/propidium iodide staining based flow cytometry analysis (reference value: 98.19 %); type: functional
# [13] = Induction of apoptosis in human RKOP3 cells assessed as early apoptotic cells at 2 uM measured after 24 hrs by annexinV-FITC/propidium iodide staining based flow cytometry analysis (reference value: 1.8 %); type: functional
# [14] = Induction of apoptosis in human RKOP3 cells assessed as late apoptotic cells at 2 uM measured after 24 hrs by annexinV-FITC/propidium iodide staining based flow cytometry analysis (reference value: 0.01 %); type: functional
# [15] = Induction of apoptosis in human RKOP3 cells assessed as necrotic cells at 2 uM measured after 24 hrs by annexinV-FITC/propidium iodide staining based flow cytometry analysis (reference value: 0 %); type: functional
# [16] = test system: DU-145; assay: Cell cycle arrest in human DU145 cells assessed as accumulation at G0/G1 phase at 5 uM measured after 24 hrs by propidium iodide staining based flow cytometry analysis (reference value: 58.2 %); type: functional
# [17] = test system: DU-145; assay: Cell cycle arrest in human DU145 cells assessed as accumulation at G0/G1 phase at 3 uM measured after 24 hrs by propidium iodide staining based flow cytometry analysis (reference value: 58.2 %); type: functional
# [18] = test system: DU-145; assay: Cell cycle arrest in human DU145 cells assessed as accumulation at G0/G1 phase at 1.5 uM measured after 24 hrs by propidium iodide staining based flow cytometry analysis (reference value: 58.2 %); type: functional
# [19] = test system: DU-145; assay: Induction of apoptosis in human DU145 cells assessed as live cells at 1.5 uM measured after 48 hrs by annexinV-FITC/propidium iodide staining based flow cytometry analysis (reference value: 97.09 %); type: functional
# [20] = test system: DU-145; assay: Induction of apoptosis in human DU145 cells assessed as early apoptotic cells at 1.5 uM measured after 48 hrs by annexinV-FITC/propidium iodide staining based flow cytometry analysis (reference value: 2.34 %); type: functional
# [21] = test system: DU-145; assay: Induction of apoptosis in human DU145 cells assessed as late apoptotic cells at 1.5 uM measured after 48 hrs by annexinV-FITC/propidium iodide staining based flow cytometry analysis (reference value: 0.05 %); type: functional
# [22] = test system: DU-145; assay: Induction of apoptosis in human DU145 cells assessed as necrotic cells at 1.5 uM measured after 48 hrs by annexinV-FITC/propidium iodide staining based flow cytometry analysis (reference value: 0.52 %); type: functional
# [23] = test system: DU-145; assay: Induction of apoptosis in human DU145 cells assessed as live cells at 3.5 uM measured after 48 hrs by annexinV-FITC/propidium iodide staining based flow cytometry analysis (reference value: 97.09 %); type: functional
# [24] = test system: DU-145; assay: Induction of apoptosis in human DU145 cells assessed as early apoptotic cells at 3.5 uM measured after 48 hrs by annexinV-FITC/propidium iodide staining based flow cytometry analysis (reference value: 2.34 %); type: functional
# [25] = test system: DU-145; assay: Induction of apoptosis in human DU145 cells assessed as late apoptotic cells at 3.5 uM measured after 48 hrs by annexinV-FITC/propidium iodide staining based flow cytometry analysis (reference value: 0.05 %); type: functional
# [26] = test system: DU-145; assay: Induction of apoptosis in human DU145 cells assessed as necrotic cells at 3.5 uM measured after 48 hrs by annexinV-FITC/propidium iodide staining based flow cytometry analysis (reference value: 0.52 %); type: functional
# [27] = test system: DU-145; assay: Induction of apoptosis in human DU145 cells assessed as live cells at 5 uM measured after 48 hrs by annexinV-FITC/propidium iodide staining based flow cytometry analysis (reference value: 97.09 %); type: functional
# [28] = test system: DU-145; assay: Induction of apoptosis in human DU145 cells assessed as early apoptotic cells at 5 uM measured after 48 hrs by annexinV-FITC/propidium iodide staining based flow cytometry analysis (reference value: 2.34 %); type: functional
# [29] = test system: DU-145; assay: Induction of apoptosis in human DU145 cells assessed as late apoptotic cells at 5 uM measured after 48 hrs by annexinV-FITC/propidium iodide staining based flow cytometry analysis (reference value: 0.05 %); type: functional
# [30] = test system: DU-145; assay: Induction of apoptosis in human DU145 cells assessed as necrotic cells at 5 uM measured after 48 hrs by annexinV-FITC/propidium iodide staining based flow cytometry analysis (reference value: 0.52 %); type: functional
# [31] = biological target: T1, Tubulin (Homo sapiens); assay: Inhibition of tubulin polymerization in human HeLa cells assessed as disruption of microtubule network at 10 uM measured after 24 hrs by immunofluorescence assay; type: cell-based
# [32] = Homo sapiens, HEK293, 48 h, read-out: IC50
SMILES,IC50 [2] [µM],IC50 [5] [µM],IC50 [6] [µM],inhibition [2],IC50 [3] [µM],inhibition [4],inhibition [5],inhibition [6],"IC50 [7, 32] [µM]",further results
COC(=O)Nc1nc2cc(C(=O)c3cccs3)ccc2[nH]1,–,–,–,–,–,–,–,–,–,inhibition [1]: Active
CCOC(=O)CCC(=O)O/N=C1\C=C2C[C@H](C)[C@@]3(C)Cc4cc(OC)c(OC)c(OC)c4C23C(OC)=C1OC (some centres undefined),8.4,25,8.37,Dose-dependent effect,22.6,Dose-dependent effect,Dose-dependent effect,Dose-dependent effect,85.4,–
COC1=C(OC)C23C(=C/C1=N\OC(=O)C1CC1)C[C@H](C)[C@@]2(C)Cc1cc(OC)c(OC)c(OC)c13 (some centres undefined),7.8,50.5,15.2,Dose-dependent effect,60,Dose-dependent effect,Dose-dependent effect,Dose-dependent effect,65.9,–
CCCCC(=O)O/N=C1\C=C2C[C@H](C)[C@@]3(C)Cc4cc(OC)c(OC)c(OC)c4C23C(OC)=C1OC (some centres undefined),6.9,22.9,12.9,Dose-dependent effect,14.8,Dose-dependent effect,Dose-dependent effect,Dose-dependent effect,112,–
COC1=C(OC)C23C(=C/C1=N\OC(=O)C(C)C)C[C@H](C)[C@@]2(C)Cc1cc(OC)c(OC)c(OC)c13 (some centres undefined),6.08,25.5,4.74,Dose-dependent effect,15.4,Dose-dependent effect,Dose-dependent effect,Dose-dependent effect,80.5,–
COC1=C(OC)C23C(=C/C1=N\OC(=O)c1c(Cl)cc(Cl)cc1Cl)C[C@H](C)[C@@]2(C)Cc1cc(OC)c(OC)c(OC)c13 (some centres undefined),7.4,37.5,50.8,Dose-dependent effect,40.7,Dose-dependent effect,Dose-dependent effect,Dose-dependent effect,79.8,–

# More lines, main results first:
IC50 [2] [µM],IC50 [5] [µM],IC50 [6] [µM],SMILES,inhibition [2],IC50 [3] [µM],inhibition [4],inhibition [5],inhibition [6],"IC50 [7, 32] [µM]",further results
8.52,7.55,50.1,COC1=C(OC)C23C(=C/C1=N\O)C[C@H](C)[C@@]2(C)Cc1cc(OC)c(OC)c(OC)c13 (some centres undefined),Dose-dependent effect,55.9,Dose-dependent effect,Dose-dependent effect,Dose-dependent effect,54.8,–
8.5,5.38,5.06,COc1cc2c(c(OC)c1OC)-c1c(cc(OC)c(OC)c1OC)C[C@](C)(O)[C@@H](C)C2 [SCHIZANDRIN],Dose-dependent effect,5.36,Dose-dependent effect,Dose-dependent effect,Dose-dependent effect,80.5,–
5.92,20.3,7.4,COC1=C(OC)C23C(=C/C1=N\OC(=O)c1ccc(Br)cc1)C[C@H](C)[C@@]2(C)Cc1cc(OC)c(OC)c(OC)c13 (some centres undefined),Dose-dependent effect,9.7,Dose-dependent effect,Dose-dependent effect,Dose-dependent effect,135,–
–,2.54,1.94,COc1cccc2c1C(=O)c1c(O)c3c(c(O)c1C2=O)C[C@@](O)(C(=O)CO)C[C@@H]3O[C@H]1C[C@H](N)[C@H](O)[C@H](C)O1 [DOXORUBICIN],–,2.23,–,–,–,–,IC50 ([7]; hek293): Not Active; Activity [8]: 46.09%; Activity [9]: 46.08%; Activity [10]: 7.83%; Activity [11]: 0%; Activity [12]: 60.97%; Activity [13]: 37.21%; Activity [14]: 1.77%; Activity [15]: 0.05%
6.5,3.42,45.3,CCC(=O)O/N=C1\C=C2C[C@H](C)[C@@]3(C)Cc4cc(OC)c(OC)c(OC)c4C23C(OC)=C1OC (some centres undefined),Dose-dependent effect,60.5,Dose-dependent effect,Dose-dependent effect,Dose-dependent effect,65.1,Activity [16]: 71.07%; Activity [17]: 66.4%; Activity [18]: 66.97%; Activity [19]: 75.71%; Activity [20]: 23.33%; Activity [21]: 0.96%; Activity [22]: 0%; Activity [23]: 68.5%; Activity [24]: 27.56%; Activity [25]: 3.87%; Activity [26]: 0.07%; Activity [27]: 68.98%; Activity [28]: 29.44%; Activity [29]: 1.54%; Activity [30]: 0.04%; inhibition [1]: Active; inhibition [31]: Active
7.8,9.6,4.23,COC1=C(OC)C23C(=CC1=O)C[C@H](C)[C@@]2(C)Cc1cc(OC)c(OC)c(OC)c13 (some centres undefined),Dose-dependent effect,50.5,Dose-dependent effect,Dose-dependent effect,Dose-dependent effect,49.7,–
9.02,16.6,5.5,COC1=C(OC)C23C(=C/C1=N\OC(=O)c1ccc(F)cc1)C[C@H](C)[C@@]2(C)Cc1cc(OC)c(OC)c(OC)c13 (some centres undefined),Dose-dependent effect,20.9,Dose-dependent effect,Dose-dependent effect,Dose-dependent effect,81.6,–
